Results as given in ChEMBL document CHEMBL1201862, “PubChem BioAssay data set” (2004).
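Tested at 5 concentrations; 48 h exposure; 96-well plates; endpoints linearly interpolated, else capped at highest concentration. GI50: concentration for 50% inhibition of growth.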 Active and inactive are the calls of the source. Rule as the data show it: active = GI50 up to about 1.1 µM and inactive = higher.

Legend:
Test in all cases: NCI anticancer screen, dose series, 48 h
CAKI-1 = system: CAKI-1
T47D = system: T47D
Malme-3M = system: Malme-3M
NCI-H522 = system: NCI-H522
KM12 = system: KM12
OVCAR-5 = system: OVCAR-5
SF-295 = system: SF-295
MDA-MB-231 = system: MDA-MB-231
SF-268 = system: SF-268
SN12C = system: SN12C
SF-539 = system: SF-539
MCF7 = system: MCF7
COLO 205 = system: COLO 205
OVCAR-4 = system: OVCAR-4
OVCAR-8 = system: OVCAR-8
SK-MEL-28 = system: SK-MEL-28
SW-620 = system: SW-620
HCT-15 = system: HCT-15
HCC 2998 = system: HCC 2998
NCI/ADR-RES = system: NCI/ADR-RES
NCI-H226 = system: NCI-H226
SK-OV-3 = system: SK-OV-3
DU-145 = system: DU-145
786-0 = system: 786-0
RPMI-8226 = system: RPMI-8226
A498 = system: A498
HOP-92 = system: HOP-92
HL-60 = system: HL-60
HT-29 = system: HT-29
NCI-H23 = system: NCI-H23
SNB-75 = system: SNB-75
MDA-MB-435 = system: MDA-MB-435
OVCAR-3 = system: OVCAR-3
U-251 = system: U-251
UACC-257 = system: UACC-257
A549 = system: A549
SK-MEL-2 = system: SK-MEL-2
SK-MEL-5 = system: SK-MEL-5
MDA-N = system: MDA-N
HOP-62 = system: HOP-62
IGROV-1 = system: IGROV-1
ACHN = system: ACHN
K562 = system: K562
SR = system: SR
NCI-H460 = system: NCI-H460
LOX IMVI = system: LOX IMVI
CCRF-CEM = system: CCRF-CEM
RXF 393 = system: RXF 393
M14 = system: M14
HCT-116 = system: HCT-116
TK-10 = system: TK-10
MOLT-4 = system: MOLT-4
EKVX = system: EKVX
PC-3 = system: PC-3
UACC-62 = system: UACC-62
SNB-19 = system: SNB-19
UO-31 = system: UO-31
Hs-578T = system: Hs-578T

SMILES: N#Cc1nc(NC(=O)c2ccccc2)sc1N
- GI50 (CAKI-1): > 10 µM (inactive)
- GI50 (T47D): > 4.03 µM (inactive)
- GI50 (Malme-3M): > 10 µM (inactive)
- GI50 (NCI-H522): > 10 µM (inactive)
- GI50 (KM12): > 10 µM (inactive)
- GI50 (OVCAR-5): > 10 µM (inactive)
- GI50 (SF-295): > 10 µM (inactive)
- GI50 (MDA-MB-231): > 10 µM (inactive)
- GI50 (SF-268): > 10 µM (inactive)
- GI50 (SN12C): > 10 µM (inactive)
- GI50 (SF-539): > 10 µM (inactive)
- GI50 (MCF7): > 2.22 µM (inactive)
- GI50 (COLO 205): > 10 µM (inactive)
- GI50 (OVCAR-4): > 6.07 µM (inactive)
- GI50 (OVCAR-8): > 10 µM (inactive)
- GI50 (SK-MEL-28): > 10 µM (inactive)
- GI50 (SW-620): > 10 µM (inactive)
- GI50 (HCT-15): > 10 µM
- GI50 (HCC 2998): > 10 µM (inactive)
- GI50 (NCI/ADR-RES): > 9.48 µM (inactive)
- GI50 (NCI-H226): > 10 µM (inactive)
- GI50 (SK-OV-3): > 10 µM (inactive)
- GI50 (DU-145): > 10 µM (inactive)
- GI50 (786-0): > 10 µM (inactive)
- GI50 (RPMI-8226): 9.82 µM (inactive)
- GI50 (A498): > 10 µM (inactive)
- GI50 (HOP-92): > 10 µM (inactive)
- GI50 (HL-60): 3 µM (inactive)
- GI50 (HT-29): > 10 µM (inactive)
- GI50 (NCI-H23): > 10 µM (inactive)
- GI50 (SNB-75): > 10 µM (inactive)
- GI50 (MDA-MB-435): > 10 µM (inactive)
- GI50 (OVCAR-3): > 10 µM (inactive)
- GI50 (U-251): > 10 µM (inactive)
- GI50 (UACC-257): > 10 µM (inactive)
- GI50 (A549): > 10 µM (inactive)
- GI50 (SK-MEL-2): > 10 µM (inactive)
- GI50 (SK-MEL-5): > 10 µM (inactive)
- GI50 (MDA-N): > 10 µM (inactive)
- GI50 (HOP-62): > 10 µM (inactive)
- GI50 (IGROV-1): > 10 µM (inactive)
- GI50 (ACHN): > 10 µM (inactive)
- GI50 (K562): > 10 µM (inactive)
- GI50 (SR): > 6.01 µM (inactive)
- GI50 (NCI-H460): > 10 µM (inactive)
- GI50 (LOX IMVI): > 10 µM (inactive)
- GI50 (CCRF-CEM): 4.54 µM (inactive)
- GI50 (RXF 393): > 10 µM (inactive)
- GI50 (M14): > 10 µM (inactive)
- GI50 (HCT-116): > 10 µM (inactive)
- GI50 (TK-10): > 10 µM (inactive)
- GI50 (MOLT-4): 3.27 µM (inactive)
- GI50 (EKVX): > 10 µM (inactive)
- GI50 (PC-3): > 10 µM (inactive)
- GI50 (UACC-62): > 10 µM (inactive)
- GI50 (SNB-19): > 10 µM (inactive)
- GI50 (UO-31): > 10 µM (inactive)

SMILES: c1ccc(COC[C@H]2O[C@@H](c3ccccc3)C[C@@H](OCc3ccccc3)C2OCc2ccccc2)cc1 (stereo partly drawn)
- GI50 (CAKI-1): > 10 µM (inactive)
- GI50 (T47D): > 10 µM (inactive)
- GI50 (Malme-3M): > 10 µM (inactive)
- GI50 (KM12): > 10 µM (inactive)
- GI50 (SF-295): > 10 µM (inactive)
- GI50 (MDA-MB-231): > 10 µM (inactive)
- GI50 (SF-268): > 10 µM (inactive)
- GI50 (SN12C): > 10 µM (inactive)
- GI50 (MCF7): > 10 µM (inactive)
- GI50 (COLO 205): > 10 µM (inactive)
- GI50 (OVCAR-8): > 10 µM (inactive)
- GI50 (SK-MEL-28): > 10 µM (inactive)
- GI50 (SW-620): > 10 µM (inactive)
- GI50 (HCT-15): > 10 µM
- GI50 (HCC 2998): > 10 µM (inactive)
- GI50 (SK-OV-3): > 10 µM (inactive)
- GI50 (DU-145): > 10 µM (inactive)
- GI50 (786-0): > 10 µM (inactive)
- GI50 (RPMI-8226): > 10 µM (inactive)
- GI50 (NCI-H23): > 10 µM (inactive)
- GI50 (SNB-75): > 10 µM (inactive)
- GI50 (A549): > 10 µM (inactive)
- GI50 (SK-MEL-5): > 10 µM (inactive)
- GI50 (MDA-N): > 10 µM (inactive)
- GI50 (HOP-62): > 10 µM (inactive)
- GI50 (IGROV-1): > 10 µM (inactive)
- GI50 (SR): > 10 µM (inactive)
- GI50 (CCRF-CEM): > 10 µM (inactive)
- GI50 (RXF 393): > 10 µM (inactive)
- GI50 (M14): > 10 µM (inactive)
- GI50 (TK-10): > 10 µM (inactive)
- GI50 (MOLT-4): > 10 µM (inactive)
- GI50 (EKVX): > 10 µM (inactive)
- GI50 (PC-3): > 10 µM (inactive)
- GI50 (UACC-62): > 10 µM (inactive)

SMILES: Cc1cccc(C(O)c2ccncc2)c1O (stereo not drawn)
- GI50 (T47D): 12.6 µM (inactive)
- GI50 (NCI-H522): > 100 µM (inactive)
- GI50 (KM12): > 100 µM (inactive)
- GI50 (SF-295): > 100 µM (inactive)
- GI50 (SF-268): > 100 µM (inactive)
- GI50 (SN12C): > 100 µM (inactive)
- GI50 (SF-539): > 100 µM (inactive)
- GI50 (OVCAR-8): > 100 µM (inactive)
- GI50 (HCT-15): > 100 µM
- GI50 (HCC 2998): > 100 µM (inactive)
- GI50 (NCI/ADR-RES): > 100 µM (inactive)
- GI50 (Hs-578T): > 100 µM (inactive)
- GI50 (NCI-H226): > 100 µM (inactive)
- GI50 (DU-145): > 100 µM (inactive)
- GI50 (HL-60): > 100 µM (inactive)
- GI50 (NCI-H23): > 100 µM (inactive)
- GI50 (SNB-75): 76.6 µM (inactive)
- GI50 (OVCAR-3): > 100 µM (inactive)
- GI50 (U-251): > 100 µM (inactive)
- GI50 (UACC-257): > 100 µM (inactive)
- GI50 (A549): > 100 µM (inactive)
- GI50 (SK-MEL-5): > 100 µM (inactive)
- GI50 (HOP-62): > 100 µM (inactive)
- GI50 (ACHN): > 100 µM (inactive)
- GI50 (K562): > 100 µM (inactive)
- GI50 (LOX IMVI): > 100 µM (inactive)
- GI50 (CCRF-CEM): > 100 µM (inactive)
- GI50 (RXF 393): 91.6 µM (inactive)
- GI50 (M14): > 100 µM (inactive)
- GI50 (HCT-116): > 100 µM (inactive)
- GI50 (MOLT-4): > 100 µM (inactive)
- GI50 (EKVX): > 100 µM (inactive)
- GI50 (PC-3): > 100 µM (inactive)
- GI50 (UACC-62): 25.8 µM (inactive)
- GI50 (SNB-19): > 100 µM (inactive)
- GI50 (UO-31): > 100 µM (inactive)
